Assays:
NPC2 to the NTD = biological target: T1, NPC2 to the NTD (Saccharomyces cerevisiae, UniProt Q12200); test: In vitro pac-lipid transfer assay from NPC2 to the NTD; assay type: biochemical; conditions: His-tagged NPC2 preloaded with soluble pac-lipid; GFP baseline, STARD3 negative control
T1 construct: residues 1–249, UniProt: Q12200; residues 1–173, UniProt: Q12408; deca-histidine tag (C, cleaved yes); made in house; host or cells: Saccharomyces cerevisiae strain DSY-5
Source text: The consistent interaction of sphingosine with both the NTD and NPC2 observed in this study inspired us to examine whether the transfer of pacSph between the two proteins could be reconstituted in vitro. To this end, a protein-to-protein sphingosine transfer assay using solubilized, free pacSph was designed (Fig 6A). […] As a control for specificity of transfer, the lipid binding domain of a mammalian STARD3 (His-STARD3-StART) was used because this protein was previously shown to interact with sphingosine in related work ([51] Preprint), but it is not located inside lysosomes and, therefore, is not expected to interact with the NTD. His-tagged NPC2, His-sfGFP, or His-STARD3-StART were immobilized on NiNTA beads, preloaded with pacSph, and incubated with the NTD. After removal of the beads, the NTD was subjected to UV crosslinking and clicked with a fluorophore, and the resulting lipid–protein complexes were visualized by SDS–PAGE.
Purified His-tagged proteins (5 μM of sfGFP, STARD3, or NPC2) were incubated with 10 μM pacSph in PBS for 60 min at 25°C at 500 rpm (Comfort thermomixer, Eppendorf). Next, the His-tagged proteins were captured on NiNTA beads and washed 5x with PBS to remove unbound pacSph. […] For data analysis, the background was subtracted and the +UV/−UV ratios were quantified for each sample as described previously. […] Statistics were calculated with the Mann–Whitney U test.

NTD of NCR1 = biological target: T2, NTD of NCR1 (Saccharomyces cerevisiae, UniProt Q12200); test: In vitro liposome crosslinking assay of pac-lipids with the NTD; assay type: binding; conditions: liposomes with 1.5 mol% pac-lipid (1 μM), 1.5 μM NTD, average ratio
T2 construct: residues 1–249, UniProt: Q12200; thrombin cleavage site (C); deca-histidine tag (C, cleaved yes); made in house; host or cells: Saccharomyces cerevisiae strain DSY-5
Source text: In a parallel approach, the substrate scope of the NTD and NPC2 was probed with photo-activatable and clickable (pac) lipids. Pac-lipids contain small chemical modifications for click chemistry reactions, with fluorophores such as AF647 (a structural analog of Alexa Fluor 647), and for UV-activated photo-crosslinking, respectively ([45]). In contrast to NBD-tagged lipids delivered in solution, pac-lipids such as pac-cholesterol (pacChol), pac-phosphatidylcholine (pacPC), pac-sphingosine (pacSph), and pac-ceramide (pacCer) were reconstituted in liposomal membranes (Fig 5A and B). As expected, the delipidated NTD crosslinks with pacChol (average +UV/−UV ratio = 2.11). Crosslinking of the NTD with pacSph (+UV/−UV = 1.73) and, to a lesser extent, with pacCer and pacPC (+UV/−UV = 1.40 and 1.12), respectively, was also detected (Fig 5C and D).
Lipids from stock vials were dissolved in chloroform and mixed at the desired molar ratio. […]
Extruded liposomes were diluted in PBS until a final lipid concentration of 60 μM, including 1 μM pac-lipid. […] Data were evaluated by subtracting background fluorescence, followed by comparing the AF647 signal between crosslinked and non-crosslinked samples, normalized to protein loading based on Coomassie staining. […] Statistics were calculated with the Mann–Whitney U test.

NPC2 = biological target: T3, NPC2 (Saccharomyces cerevisiae, UniProt Q12408); test: In vitro liposome crosslinking assay of pac-lipids with NPC2; assay type: binding; conditions: liposomes with 1.5 mol% pac-lipid (1 μM), 1.5 μM NPC2
T3 construct: residues 1–173, UniProt: Q12408; thrombin cleavage site (C); deca-histidine tag (C, cleaved yes); made in house; host or cells: Saccharomyces cerevisiae strain DSY-5
T3 sequence (Q12408 22-173): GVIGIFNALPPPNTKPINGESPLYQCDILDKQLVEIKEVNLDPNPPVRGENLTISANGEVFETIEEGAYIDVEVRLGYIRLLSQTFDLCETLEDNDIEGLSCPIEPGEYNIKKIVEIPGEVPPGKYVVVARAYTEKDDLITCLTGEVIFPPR
Method: To compare with the interaction profile of the NTD, crosslinking assays were also performed with purified, delipidated NPC2 (Fig S4A and B). […] NPC2 crosslinks well with all tested pac-lipids but, as for the NTD, most strongly with pacChol (+UV/−UV ratio = 1.91). Robust and consistent crosslinking with pacSph (+UV/−UV ratio = 1.64), pacCer (+UV/−UV = 1.67), and pacPC (+UV/−UV = 1.63) were observed. The crosslinking efficiency for cholesterol and sphingosine analogs was higher for the NTD, whereas crosslinking with ceramide and PC analogs seemed stronger with NPC2.
Lipids from stock vials were dissolved in chloroform and mixed at the desired molar ratio. For in vitro crosslinking, most liposomes consisted of 88.5 mol% DOPC as carrier lipid, 10 mol% DOPS, and 1.5 mol% respective pac-lipid. The pac-lipids were incorporated into liposomes at low concentrations (1.5 mol%) to ensure homogenous distribution and avoid micelle formation. The solvent was evaporated in a rotary evaporator (Hei-VAP Core, Heidolph) for 30 min at 42°C at 150 rpm to create a thin lipid film. Lipid films were hydrated with filtered and degassed PBS (137 mM NaCl, 2.7 mM KCl, 10 mM Na2HPO4, 1.8 mM KH2PO4, pH 7.4). Solutions of hydrated lipids (with a total lipid concentration of 2 mM) were subjected to five freeze–thaw cycles in liquid nitrogen and warm water (42°C) to facilitate breakup of large structures and support formation of smaller multilamellar vesicles. Lipid solutions were stored at −20°C. Before use, liposomes were extruded by passing 20x through a 100-nm pore size polycarbonate filter (Nuclepore; Whatman) using a hand extruder (Avanti Polar Lipids). Extruded liposomes were stored at 4°C, protected from light, and used within 1–2 d.
Extruded liposomes were diluted in PBS until a final lipid concentration of 60 μM, including 1 μM pac-lipid. Purified proteins were added until a final concentration of 1.5 μM in a reaction volume of 100 μl. Protein–liposome mixtures were incubated in 0.5-ml Eppendorf tubes for 30 min at 37°C at 400 rpm (Comfort thermomixer, Eppendorf), then crosslinked (or not) by exposure to 365-nm UV light for 15 min at 4°C using a 100-W mercury lamp (Blak-Ray B-100AP). After crosslinking, the click reaction was performed by adding 0.7 μl of freshly prepared click mix into the sample tubes. The final concentrations of click reagents in sample tubes were 80 μM CuSO4 (Merck), 3 μM TBTA (Merck), 3 μM AF647-picolyl azide (Jena Bioscience), and 80 μM ascorbic acid (Merck). Fresh stock of ascorbic acid solution in water was prepared every time and added to the click mix immediately before starting the click reaction. Click reactions were allowed to proceed for 2 h at 37°C at 400 rpm with the thermomixer. Then, samples were concentrated in a vacuum evaporator for 30 min set to 30°C and supplemented with 4x Lämmli buffer (250 mM Tris, pH 6.8, 9.2% SDS, 40% glycerol, 0.2% bromophenol blue, 100 mM DTT). Samples were boiled for 5 min at 95°C, and clicked protein–lipid complexes were resolved by SDS–PAGE. After extensive destaining in a destain solution (65% water, 25% isopropanol, and 10% acetic acid), the AF647 (a structural analog of Alexa Fluor 647) and Coomassie images were acquired using the LI-COR Odyssey imaging system. Data were evaluated by subtracting background fluorescence, followed by comparing the AF647 signal between crosslinked and non-crosslinked samples, normalized to protein loading based on Coomassie staining. The resulting values are described as +UV/−UV ratios. Statistics were calculated with the Mann–Whitney U test.

T2 sequence (Q12200 20-249): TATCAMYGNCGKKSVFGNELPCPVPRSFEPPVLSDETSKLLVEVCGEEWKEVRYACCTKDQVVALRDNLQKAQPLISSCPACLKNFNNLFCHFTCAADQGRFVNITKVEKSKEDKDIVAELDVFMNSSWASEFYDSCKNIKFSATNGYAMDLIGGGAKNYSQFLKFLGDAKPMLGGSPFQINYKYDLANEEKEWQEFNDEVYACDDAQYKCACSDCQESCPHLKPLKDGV
T1 sequence (Q12200 20-249): as above

`C#CCCCC1(CCCCCCCC/C=C/[C@H](O)[C@H](N)CO)N=N1` [pacSph] was tested, and the “transfer of pac-lipid from NPC2 to the NTD (crosslinking with NTD)” value (NPC2 to the NTD) was “increased crosslinking”, the “+UV/−UV ratio (crosslinking with NTD)” value (NTD of NCR1) was 1.73 and the “+UV/−UV ratio (crosslinking with NPC2)” value (NPC2) was 1.64.

Source: PMC11512107, “Structural and biochemical analysis of ligand binding in yeast Niemann–Pick type C1–related protein” (Life Science Alliance, 2024)
